# Tests used:
# Assay type in all cases: cell-based
# [1] = tested on: Enterococcus faecium; conditions: 22 strains (11/22 VRE)
# From the text: (§1) The Minimum Inhibitory Concentration (MIC) of PLP-3 peptide (SEQ D NO: 4) against a collection of clinically relevant Gram-positive bacterial strains was obtained via broth microdilution. The tested species Staphylococcus aureus, Enterococcus faecium and Enterococcus faecalis. The followed protocol was based on the Clinical & Laboratory Standards Institute (CLSI) and EUCAST Guidelines.
# (§2) In these tests, MIC is the value defined as the lowest concentration of an antimicrobial which inhibits the macroscopic growth of a bacterial strain after 16-20 hours of incubation at 37° C. The results of this assay were obtained by visual identification of bacterial growth at the bottom of each well plate. Since the wells contained decreasing concentrations of the peptide, the final result was indicated as a concentration, MIC, expressed in μg/mL of the PLP-3.
# (§3) Bacterial strains were streaked in Columbia Agar plates (Columbia Agar with 5% Sheep Blood 90 mm Stacker plates, Becton Dickinson) and incubated overnight at 37° C. Polypropylene round bottomed 96-well plates were filled with 50 μL/well of Cation Adjusted Mueller-Hinton Broth (CAMHB, 90922, 500 g, Sigma-Aldrich) and 50 μL of PLP-3 (at 4 times higher the chosen initial concentration of the test) were added to the first well of each row of the plate followed by 1:2 serial dilutions up until the 10th column of the plate. The 11th and 12th columns were used for positive and negative growth controls.
# (§4) Stain inoculums were standardized by preparing a 1:100 dilution of 0.5 McFarland solutions in CAMHB. Plates were inoculated with 50 μL of the diluted inoculums and covered with an adhesive film before 16-20 hours of incubation at 37° C.
# (§5) Two biological and two technical replicates were performed per strain.
# (§6) Broth microdilution testing from a panel of clinical strains of each specie provided MIC50 and […] values (Table 7). Strains were either from clinical origin, relevant to current clinical situation, or commercially available strains belonging to the American Type Culture Collection (ATCC), S. aureus 29213. Regarding clinical strains collection, 10 out of the 19 S. aureus strains were resistant to methicillin (MRSA), and 11 out of the 22 E. faecium strains were resistant to Vancomycin (VRE).
# (§7) MIC50 value represents the antimicrobial concentration value that inhibits the growth of 50% of the bacterial strain panel. […] value represents the antimicrobial concentration value that inhibits the growth of 90% the bacterial strain collection.
# [2] = tested on: Staphylococcus aureus; conditions: 19 strains (10/19 MRSA)
# From the text: as §1, §2, §3, §4, §5, §6, §7
# [3] = tested on: Enterococcus faecalis; conditions: 15 strains
# From the text: as §1, §2, §3, §4, §5, §6, §7
# [4] = tested on: Acinetobacter baumannii
# From the text: (§8) Minimum Inhibitory Concentration (MIC) of a peptide of SEQ D NO: 4 (abbreviated PLP-3) and colistin against a collection of clinically relevant and commercially available bacterial strains was obtained via broth microdilution. The protocol for antimicrobial activity determination, detailed below, consisted in a modification of Clinical & Laboratory Standards Institute (CLSI) Guidelines.
# (§9) MIC is the value defined as the lowest concentration of an antimicrobial, in these tests either PLP-3 or colistin, which inhibits the macroscopic growth of a bacterial strain after 18-22 h incubation at 37° C. The results from these assays are obtained via visual identification of the bacterial bottom at the end of the wells of the testing plate. Since the wells contain decreasing concentrations of the compounds, the final result is indicated as a concentration, MIC, expressed in μg/mL of the agent (in this case PLP-3 or colistin).
# (§10) Bacterial strains were streaked in Columbia Agar plates (Columbia Agar with 5% Sheep Blood 90 mm Stacker plates, BD) and incubated overnight at 37° C. Polypropylene round bottomed 96-well plates were filled with 50 μL/well of Mueller-Hinton Broth (MHB, CM0405, 500 g, ThermoFisher Scientific™ Oxoid™) and 50 μL of either colistin or PLP-3 (at 4× the chosen initial concentration of the test) were added to the first well of each row of the plate followed by serial dilutions up until the 10th column of the plate.
# (§11) Finally, strain inoculums were prepared by diluting 1:100 0.5 McFarland solutions in MHB. Plates were then inoculated with 50 μL of the inoculums and covered with film before 18 to 22 h incubation at 37 C.
# (§12) Three biological and three technical replicates were performed per strain.
# (§13) Broth microdilution testing of 15 strains of each species provided MIC50 and […] values (Table 4). Strains were either from clinical origin, relevant to current clinical situation, or commercially available strains belonging to the American Type Culture Collection (ATCC), namely: A. baumannii 17978 and 19606, K. pneumoniae 13883 and P. aeruginosa 27853.
# (§14) This panel represents an example of relevant MDR, colistin resistant and colistin susceptible strains from which to compare results. The minimum inhibitory concentration (MIC) is the lowest concentration of a chemical, usually a drug, which prevents visible growth of a bacterium or bacteria. MIC50 represents the antimicrobial concentration value that inhibits the growth of 50% of the bacterial strains and […] of each species from the tested panel of strains. Being colistin both a peptide and a last-resource antibiotic, it was included in these assays for comparison against a commercially available antibiotic.
# [5] = tested on: Klebsiella pneumoniae
# From the text: as §8, §9, §10, §11, §12, §13, §14
# [6] = panel of 15 A. baumannii strains
# [7] = panel of 15 K. pneumoniae strains
smiles,measurement,setting,value
"CC(C)C[C@@H]1NC(=O)[C@H](CCCNC(=N)N)NC(=O)[C@H](CCCNC(=N)N)NC(=O)[C@H](CCCNC(=N)N)NC(=O)[C@H]2CCCN2C(=O)[C@H](CCCNC(=N)N)NC(=O)[C@H](CCCNC(=N)N)NC(=O)[C@H](C(C)C)NC(=O)[C@@H]2CSSC[C@H](NC1=O)C(=O)N[C@@H](Cc1ccccc1)C(=O)N[C@@H](C(C)C)C(=O)N[C@@H](CCCNC(=N)N)C(=O)N1CCC[C@@H]1C(=O)N[C@@H](CCCCN)C(=O)N[C@@H](Cc1ccccc1)C(=O)N[C@@H](C(C)C)C(=O)N[C@@H](C(C)C)C(=O)N2 [PLP-3, cyclo[RRRLCFVRPKFVVCVRRP]]",MIC50,[1],2 µg/mL
same,MIC90,[1],2 µg/mL
same,MIC50,[2],4 µg/mL
same,MIC90,[2],8 µg/mL
same,MIC50,[3],4 µg/mL
same,MIC90,[3],4 µg/mL
same,Range of MICs,[4],1 to 2 µg/mL
same,MIC50,[4]; [6],1 µg/mL
same,MIC90,[4]; [6],2 µg/mL
same,MIC range,[5],2 to 32 µg/mL
same,MIC50,[5]; [7],4 µg/mL
same,MIC90,[5]; [7],16 µg/mL

# From patent US20260242418A1, “CYCLIC PEPTIDES WITH ANTIBACTERIAL ACTIVITY AGAINST MULTIDRUG RESISTANT (MDR) PATHOGENS” (priority 2022, published 2026)
